From patent US20140271470A1, “TARGETED THERANOSTICS FOR METASTATIC PROSTATE CANCER” (priority 2013, published 2014)

What was measured:
[1] = tested on: NF-κB; conditions: cited from earlier work
[2] = tested on: human C4-2 prostate cancer xenografts; assay: Tumor volume growth of C4-2 xenografts treated with SIPP preparations; format: in vivo, nude mice; conditions: tumor volume growth curves
Excerpt: Tumor volume growth curves for nude mice bearing human C4-2 prostate cancer xenografts treated with various preparations of SIPPs. (A) Black squares, no treatment controls.

[3] = target: T1, neurotensin receptor 1 (NTR1) (Homo sapiens, UniProt P30989); conditions: combined with radiation; cited from earlier work
T1 construct: NTR1, which is highly expressed in prostate cancer cells but not in normal prostate epithelial cells; endogenous in cells; PC-3M for the xenograft
T1 sequence (P30989 whole entry): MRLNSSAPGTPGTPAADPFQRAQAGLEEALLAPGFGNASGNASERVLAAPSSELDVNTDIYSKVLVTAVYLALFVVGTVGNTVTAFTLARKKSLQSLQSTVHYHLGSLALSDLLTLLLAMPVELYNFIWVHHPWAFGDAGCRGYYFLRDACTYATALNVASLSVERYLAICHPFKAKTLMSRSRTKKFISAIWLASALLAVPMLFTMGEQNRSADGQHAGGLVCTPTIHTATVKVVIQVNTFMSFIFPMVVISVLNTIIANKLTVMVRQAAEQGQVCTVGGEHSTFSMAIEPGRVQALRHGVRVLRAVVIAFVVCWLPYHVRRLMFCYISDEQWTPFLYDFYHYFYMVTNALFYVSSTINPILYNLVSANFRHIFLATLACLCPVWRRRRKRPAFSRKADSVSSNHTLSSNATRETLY

[4] = tested on: PC-3M orthotopic human tumor xenografts; conditions: combined with radiation; cited from earlier work

Compound: C[C@H]1O[C@@H](O[C@H]2[C@@H](O)C[C@H](O[C@H]3[C@@H](O)C[C@H](O[C@H]4CC[C@@]5(C)[C@H](CC[C@@H]6[C@@H]5C[C@@H](O)[C@]5(C)[C@@H](C7=CC(=O)OC7)CC[C@]65O)C4)O[C@@H]3C)O[C@@H]2C)C[C@H](O)[C@@H]1O [digoxin]
- NF-κB inhibition [1]: potent inhibitors of NF-κB

Compound: CC(=O)O[C@H]1C(=O)[C@@]2(C)[C@H]([C@H](OC(=O)c3ccccc3)[C@]3(O)C[C@H](OC(=O)[C@H](O)[C@@H](NC(=O)c4ccccc4)c4ccccc4)C(C)=C1C3(C)C)[C@]1(OC(C)=O)CO[C@@H]1C[C@@H]2O [Paclitaxel, paclitaxel]
- effect on tumor growth [2]: effective

Compound: C[C@H]1O[C@@H](O[C@H]2[C@@H](O)C[C@H](O[C@H]3[C@@H](O)C[C@H](O[C@H]4CC[C@@]5(C)[C@H](CC[C@@H]6[C@@H]5CC[C@]5(C)[C@@H](C7=CC(=O)OC7)CC[C@]65O)C4)O[C@@H]3C)O[C@@H]2C)C[C@H](O)[C@@H]1O [digitoxin]
- NF-κB inhibition [1]: potent inhibitors of NF-κB

Compound: COc1cccc(OC)c1-c1cc(C(=O)NC2(C(=O)O)C3CC4CC(C3)CC2C4)nn1-c1ccnc2cc(Cl)ccc12 (centres unmarked) [SR48692]
- apoptotic cell death [3]: increasing apoptotic cell death
- clonogenic survival [3]: decreasing clonogenic survival
- radiosensitization of prostate cancer cells [3]: sensitized prostate cancer cells in a dose- and time-dependent manner
- radiosensitization of xenografts [4]: efficiently radiosensitizedn
- tumor burden [4]: significantly reduced tumor burden
